The term IC50 denotes the concentration at which inhibition is half-maximal.

Like-named read-outs stand apart in the source and are kept apart here.

The results in this text go back to patent EP0929545B1, “TRICYCLIC INHIBITORS OF FARNESYL PROTEIN TRANSFERASE” (SCHERING CORPORATION, priority 1996, dated 1998).

Experiment [1] concerns the target farnesyl protein transferase (Homo sapiens, UniProt P49354+P49356). The experiment can be described thus: FPT IC50, inhibition of farnesyl protein transferase, in vitro enzyme assay. Format: biochemical. To be noted: range stated jointly for the listed compounds. The protocol: (§1) FPT IC50 (inhibition of farnesyl protein transferase, in vitro enzyme assay) and COS Cell IC50 (Cell-Based Assay) were determined following the assay procedures described in WO 95/10516, published April 20, 1995. GGPT IC50 (inhibition of geranylgeranyl protein transferase, in vitro enzyme assay), Cell Mat Assay, and anti-tumor activity (in vivo anti-tumor studies) could be determined by the assay procedures described in WO 95/ 10516. The disclosure of WO 95/ 10516 is incorporated herein by reference thereto.

The subject of experiment [2] is Human tumor cells. The experiment can be described thus: Soft Agar Assay (anchorage-independent growth). Format: cell-based. To be noted: range stated jointly for the listed compounds, upper end printed as >500. The protocol: Anchorage-independent growth is a characteristic of tumorigenic cell lines. Human tumor cells are suspended in growth medium containing 0.3% agarose and an indicated concentration of a farnesyl transferase inhibitor. The solution is overlayed onto growth medium solidified with 0.6% agarose containing the same concentration of farnesyl transferase inhibitor as the top layer. After the top layer is solidified, plates are incubated for 10-16 days at 37°C under 5% CO2 to allow colony outgrowth. After incubation, the colonies are stained by overlaying the agar with a solution of MTT (3-[4,5-dimethylthiazol-2-yl]-2,5-diphenyltetrazolium bromide, Thiazolyl blue) (1 mg/mL in PBS). Colonies can be counted and the IC50's can be determined.

For experiment [3], the system named is COS Cell. The experiment can be described thus: COS Cell IC50 (Cell-Based Assay). Conditions: range stated jointly for the listed compounds. The protocol:
as §1

Setting [4] is: H-ras, read-out: FPT IC50 (H-ras).
Where [5] appears, read: K-ras, read-out: FPT IC50 (K-ras).

As for `O=C(CC1CCN(c2nnnn2-c2ccccc2)CC1)N1CCC([C@H]2c3ncc(Br)cc3CCc3cc(Cl)cc(Br)c32)CC1` [Compound 2.0], the half-inhibitory concentration (IC50) in experiment [1] (setting [4]) was 4.6 to 140 nM.

On to `O=C(CC1CCN(c2ccccn2)CC1)N1CCC([C@H]2c3ncc(Br)cc3CCc3cc(Cl)cc(Br)c32)CC1` [Compound 5.0], for which the concentration for half-maximal inhibition (IC50) is 4.6 to 140 nM in experiment [1] (setting [4]), 29 to 91 nM in experiment [1] (setting [5]), no less than 80 nM in experiment [2] and 35 to 120 nM in experiment [3].

With `O=C(CC1CCN(c2ncccn2)CC1)N1CCC([C@H]2c3ncc(Br)cc3CCc3cc(Cl)cc(Br)c32)CC1` [Compound 6.0], the results for the IC50 in experiment [1] (setting [4]) and in experiment [3] were 4.6 to 140 nM and 35 to 120 nM, respectively.

Take `O=C(CC1CCN(c2nccs2)CC1)N1CCC([C@H]2c3ncc(Br)cc3CCc3cc(Cl)cc(Br)c32)CC1` [Compound 3.0]: the concentration for half-maximal inhibition (IC50) in experiment [1] (setting [4]) lay within 4.6 to 140 nM.

For the molecule `O=C(CC1CCN(c2nc3ccccc3o2)CC1)N1CCC([C@H]2c3ncc(Br)cc3CCc3cc(Cl)cc(Br)c32)CC1` [Compound 4.0], the half-inhibitory concentration (IC50) in experiment [1] (setting [4]) is 4.6 to 140 nM; in experiment [1] (setting [5]), 29 to 91 nM; in experiment [3] it was 35 to 120 nM.

Take `CC(=O)OC[C@H]1O[C@@H](N2CCC(CC(=O)N3CCC([C@H]4c5ncc(Br)cc5CCc5cc(Cl)cc(Br)c54)CC3)CC2)[C@H](OC(C)=O)[C@@H](OC(C)=O)[C@@H]1OC(C)=O` [Compound 9.3, (+) -4-(3,10-dibromo-8-chloro-6,11-dihydro-5H-benzo[5,6]cyclohepta[1,2-b]pyridin-11-yl)-1-[[1-[2,3,4,6-tetra-O-acetyl-1-beta-D-glucopyranosyl]-4-piperidinyl]acetyl]piperidine]: the IC50 in experiment [1] (setting [4]) was 4.6 to 140 nM; in experiment [1] (setting [5]), 29 to 91 nM; in experiment [2], no less than 80 nM; in experiment [3] it was 35 to 120 nM.
